Numbers after ± are expanded uncertainties.
Assays:
[1] = xn = mol fraction of the nth substance listed; conditions: 101 kPa, Liquid; for speed of sound: Sing-around technique in a fixed-path interferometer; for mass density: Vibrating tube method
[2] = refractive index (Na D-line) (dimensionless); xn = mol fraction of the nth substance listed; conditions: 101 kPa, Liquid, Standard Abbe refractometry

CCCCCCn1cc[n+](C)c1.F[B-](F)(F)F [1-hexyl-3-methylimidazolium tetrafluoroborate] + C1COCCO1
Conditions | mass density, 298.15 K [kg/m3] | mass density, 308.15 K [kg/m3] | mass density, 318.15 K [kg/m3] | refractive index, 298.15 K | refractive index, 308.15 K | refractive index, 318.15 K | speed of sound, 298.15 K [m/s] | speed of sound, 308.15 K [m/s] | speed of sound, 318.15 K [m/s]
[1], x1 = 0.0956 | 1060.24 ± 0.16 | 1050.11 ± 0.16 | 1040.21 ± 0.16 | – | – | – | 1373.3 ± 1.3 | 1332.3 ± 1.3 | 1291 ± 1.3
[1], x1 = 0.2039 | 1084.24 ± 0.2 | 1074.91 ± 0.2 | 1065.52 ± 0.19 | – | – | – | 1403 ± 1.4 | 1364.1 ± 1.4 | 1324.8 ± 1.4
[1], x1 = 0.2945 | 1098.98 ± 0.25 | 1089.94 ± 0.25 | 1081.15 ± 0.24 | – | – | – | 1422 ± 1.5 | 1384.1 ± 1.5 | 1346.8 ± 1.5
[1], x1 = 0.368 | 1107.75 ± 0.31 | 1099.02 ± 0.3 | 1090.42 ± 0.3 | – | – | – | 1434 ± 1.6 | 1398.1 ± 1.6 | 1362.7 ± 1.5
[1], x1 = 0.4876 | 1119.03 ± 0.42 | 1110.69 ± 0.42 | 1102.5 ± 0.41 | – | – | – | 1450.5 ± 1.7 | 1417.6 ± 1.7 | 1384.3 ± 1.7
[1], x1 = 0.5831 | 1125.92 ± 0.53 | 1118.09 ± 0.52 | 1110.2 ± 0.51 | – | – | – | 1461 ± 1.8 | 1430.1 ± 1.8 | 1398.7 ± 1.8
[1], x1 = 0.6816 | 1131.92 ± 0.65 | 1124.09 ± 0.64 | 1116.5 ± 0.63 | – | – | – | 1470.5 ± 1.9 | 1441.5 ± 1.9 | 1412.2 ± 1.9
[1], x1 = 0.7695 | 1136.19 ± 0.77 | 1128.65 ± 0.76 | 1121.26 ± 0.75 | – | – | – | 1478.1 ± 2 | 1450.5 ± 2 | 1423.2 ± 2
[1], x1 = 0.8594 | 1140.02 ± 0.91 | 1132.69 ± 0.89 | 1125.9 ± 0.88 | – | – | – | 1485.9 ± 2.1 | 1459.7 ± 2.1 | 1433.3 ± 2.1
[1], x1 = 1 | 1145.11 ± 1.1 | 1137.71 ± 1.1 | 1130.49 ± 1.1 | – | – | – | 1496.7 ± 2.3 | 1472 ± 2.3 | 1447.7 ± 2.3
[2], x1 = 0.0956 | – | – | – | 1.4241 ± 0.00037 | 1.42009 ± 0.00037 | 1.41587 ± 0.00038 | – | – | –
[2], x1 = 0.2039 | – | – | – | 1.42717 ± 0.00038 | 1.42329 ± 0.00038 | 1.41958 ± 0.00038 | – | – | –
[2], x1 = 0.2945 | – | – | – | 1.42874 ± 0.00039 | 1.42525 ± 0.00039 | 1.42174 ± 0.00039 | – | – | –
[2], x1 = 0.368 | – | – | – | 1.42944 ± 0.0004 | 1.42625 ± 0.0004 | 1.42294 ± 0.0004 | – | – | –
[2], x1 = 0.4876 | – | – | – | 1.43034 ± 0.00042 | 1.42727 ± 0.00042 | 1.42429 ± 0.00042 | – | – | –
[2], x1 = 0.5831 | – | – | – | 1.43075 ± 0.00044 | 1.42802 ± 0.00044 | 1.42519 ± 0.00044 | – | – | –
[2], x1 = 0.6816 | – | – | – | 1.43106 ± 0.00046 | 1.42839 ± 0.00046 | 1.42546 ± 0.00046 | – | – | –
[2], x1 = 0.7695 | – | – | – | 1.43149 ± 0.00048 | 1.42861 ± 0.00048 | 1.42574 ± 0.00048 | – | – | –
[2], x1 = 0.8594 | – | – | – | 1.43152 ± 0.0005 | 1.42868 ± 0.0005 | 1.42604 ± 0.0005 | – | – | –
[2], x1 = 1 | – | – | – | 1.43167 ± 0.00053 | 1.4289 ± 0.00053 | 1.42612 ± 0.00053 | – | – | –

CCCCCCn1cc[n+](C)c1.F[B-](F)(F)F [1-hexyl-3-methylimidazolium tetrafluoroborate] + C1CCOC1
Conditions | mass density, 298.15 K [kg/m3] | mass density, 308.15 K [kg/m3] | mass density, 318.15 K [kg/m3] | refractive index, 298.15 K | refractive index, 308.15 K | refractive index, 318.15 K | speed of sound, 298.15 K [m/s] | speed of sound, 308.15 K [m/s] | speed of sound, 318.15 K [m/s]
[1], x1 = 0.0989 | 954.559 ± 0.22 | 945.509 ± 0.23 | 936.105 ± 0.23 | – | – | – | 1306.3 ± 1.4 | 1263.5 ± 1.4 | 1221.2 ± 1.4
[1], x1 = 0.2022 | 1005.23 ± 0.24 | 996.175 ± 0.24 | 987.171 ± 0.24 | – | – | – | 1346.4 ± 1.5 | 1308 ± 1.5 | 1270.1 ± 1.5
[1], x1 = 0.3014 | 1040.84 ± 0.31 | 1032.56 ± 0.3 | 1023.55 ± 0.29 | – | – | – | 1379.6 ± 1.6 | 1344.7 ± 1.6 | 1310.1 ± 1.6
[1], x1 = 0.3985 | 1066.08 ± 0.39 | 1058.03 ± 0.39 | 1049.53 ± 0.38 | – | – | – | 1406.7 ± 1.7 | 1374.4 ± 1.7 | 1342.6 ± 1.7
[1], x1 = 0.5109 | 1089.28 ± 0.51 | 1081.23 ± 0.5 | 1072.72 ± 0.49 | – | – | – | 1431.3 ± 1.8 | 1401.3 ± 1.8 | 1371.8 ± 1.8
[1], x1 = 0.5974 | 1103.2 ± 0.6 | 1095.15 ± 0.59 | 1087.75 ± 0.58 | – | – | – | 1447 ± 1.9 | 1418.5 ± 1.9 | 1390.3 ± 1.9
[1], x1 = 0.6974 | 1116.29 ± 0.72 | 1109.24 ± 0.71 | 1102.04 ± 0.7 | – | – | – | 1462.8 ± 2 | 1435.6 ± 2 | 1408.7 ± 2
[1], x1 = 0.8045 | 1128.3 ± 0.86 | 1121.25 ± 0.85 | 1114.44 ± 0.84 | – | – | – | 1477.3 ± 2.1 | 1451.1 ± 2.1 | 1425.4 ± 2.1
[1], x1 = 0.8865 | 1135.58 ± 0.97 | 1128.53 ± 0.96 | 1121.52 ± 0.95 | – | – | – | 1486.9 ± 2.2 | 1461.3 ± 2.2 | 1436.2 ± 2.2
[1], x1 = 1 | 1145.11 ± 1.1 | 1137.71 ± 1.1 | 1130.49 ± 1.1 | – | – | – | 1496.7 ± 2.3 | 1472 ± 2.3 | 1447.7 ± 2.3
[2], x1 = 0.0989 | – | – | – | 1.41416 ± 0.00039 | 1.41006 ± 0.00039 | 1.40595 ± 0.0004 | – | – | –
[2], x1 = 0.2022 | – | – | – | 1.42016 ± 0.0004 | 1.41657 ± 0.0004 | 1.41275 ± 0.00041 | – | – | –
[2], x1 = 0.3014 | – | – | – | 1.42373 ± 0.00041 | 1.42043 ± 0.00041 | 1.4171 ± 0.00042 | – | – | –
[2], x1 = 0.3985 | – | – | – | 1.42607 ± 0.00043 | 1.42284 ± 0.00043 | 1.41964 ± 0.00043 | – | – | –
[2], x1 = 0.5109 | – | – | – | 1.4279 ± 0.00044 | 1.42491 ± 0.00045 | 1.42175 ± 0.00045 | – | – | –
[2], x1 = 0.5974 | – | – | – | 1.42888 ± 0.00046 | 1.42609 ± 0.00046 | 1.42305 ± 0.00046 | – | – | –
[2], x1 = 0.6974 | – | – | – | 1.42974 ± 0.00048 | 1.427 ± 0.00048 | 1.42418 ± 0.00048 | – | – | –
[2], x1 = 0.8045 | – | – | – | 1.4305 ± 0.00049 | 1.42774 ± 0.00049 | 1.42511 ± 0.00049 | – | – | –
[2], x1 = 0.8865 | – | – | – | 1.43095 ± 0.00051 | 1.42822 ± 0.00051 | 1.42548 ± 0.00051 | – | – | –
[2], x1 = 1 | – | – | – | 1.43167 ± 0.00053 | 1.4289 ± 0.00053 | 1.42612 ± 0.00053 | – | – | –

Reference: the NIST ThermoML archive (doi:10.1016/j.jct.2013.11.027)
